Experimental data as given in patent US9156790B2, “Anticancer P21-activated kinase inhibitors” (Ohio State Innovation Foundation, priority 2013, dated 2015).
Read-outs that look alike come from different tables or passages of the source.

Tests used:
[1] = system: FTC133 cells; test: MTT cell viability assay, FTC133; assay type: cell-based, Human; details: 1% FBS, mean±standard deviation (n=3), read-out: IC50 for reducing viability of FTC133 cells versus DMSO control
Text: (§1) Human thyroid cancer BCPAP, TPC1, and FTC133 cell lines were the generous gifts of Drs. Rebecca Schweppe and Bryan Haugen (University of Colorado Denver) (Schweppe et al., The Journal of clinical endocrinology and metabolism 83:4331-4341 (2008)) with permission from the following originating laboratories: BCPAP—Dr. Fabien, Centre Hospitalier Lyon-Sud, France (Fabien et al., Cancer 73:2206-2212 (1994)); TPC1—Dr. Sato, Kanazawa University, Japan (Tanaka et al., Virology 161:62-411 (1987)); and FTC133—Dr. Goretzki, University of Leipzig, Germany (Goretzki et al., Recent Results Cancer Res 118:48-63 (1990)). The obtained cell lines were confirmed for identity by DNA fingerprinting. BCPAP was grown in RPMI 1640 medium (Life Technologies Co., Carlsbad, Calif.) while FTC133 and TPC1 were grown in DMEM (Life Technologies Co.), both supplemented with 10% fetal bovine serum (FBS) and NEAA unless as noted for experiments.
(§2) The effect of OSU-03012 and its derivatives on cell viability was assessed by using the 3-(4,5-dimethylthiazol-2-yl)-2,5-diphenyl-2H-tetrazolium bromide (MTT) assay. Three replicates were performed in each individual experiment, and experiments were repeated at least three separate times. Cells were grown in 96-well plates for 24 hours and were exposed to various concentrations of drugs dissolved in DMSO (final concentration 0.1%) in RPMI 1640 or DMEM containing 1% FBS for 72 hours. 10 μL of 0.5 mg/ml MTT was added to each well and cells were incubated in CO2 at 37° C. for 2 hours. Supernatants were removed from the wells, the reduced MTT dye was solubilized in 100 μL of solution C (12 ml of 1N HCl in 300 mL of isopropanol), and absorbance at 570 nm was determined on a microplate reader.
(§3) We assessed the ability of the compounds to reduce cell viability in vitro by MTT assay after 72 hours of continuous exposure. Results are shown in Table 1 and are depicted as the IC50 vs. simultaneously performed DMSO control.
(§4) ^aThe reported IC50 values are concentrations at which BCPAP, FTC133 and TPC1 cell viability by MTT assays 50% of DMSO control after 72-hours of exposure. Data are presented as mean±standard deviation (n=3). PAK and PDK1 Selectivity In Vivo

[2] = target: T1, Recombinant active PAK 1 (Homo sapiens, UniProt Q13153); test: In vitro PAK1 kinase assay (MBP substrate, 32P-ATP); assay type: biochemical; details: for Relative PAK1 inhibitory potency (comparison in words): in vitro kinase assay, comparison between compounds / with OSU-03012; for Inhibition of PAK1 kinase activity in initial screen: 7.5 μM inhibitor, 2.5 μM ATP, myelin basic protein substrate (FIG. 2A)
T1 construct: purchased Calbiochem
T1 sequence (Q13153 whole entry): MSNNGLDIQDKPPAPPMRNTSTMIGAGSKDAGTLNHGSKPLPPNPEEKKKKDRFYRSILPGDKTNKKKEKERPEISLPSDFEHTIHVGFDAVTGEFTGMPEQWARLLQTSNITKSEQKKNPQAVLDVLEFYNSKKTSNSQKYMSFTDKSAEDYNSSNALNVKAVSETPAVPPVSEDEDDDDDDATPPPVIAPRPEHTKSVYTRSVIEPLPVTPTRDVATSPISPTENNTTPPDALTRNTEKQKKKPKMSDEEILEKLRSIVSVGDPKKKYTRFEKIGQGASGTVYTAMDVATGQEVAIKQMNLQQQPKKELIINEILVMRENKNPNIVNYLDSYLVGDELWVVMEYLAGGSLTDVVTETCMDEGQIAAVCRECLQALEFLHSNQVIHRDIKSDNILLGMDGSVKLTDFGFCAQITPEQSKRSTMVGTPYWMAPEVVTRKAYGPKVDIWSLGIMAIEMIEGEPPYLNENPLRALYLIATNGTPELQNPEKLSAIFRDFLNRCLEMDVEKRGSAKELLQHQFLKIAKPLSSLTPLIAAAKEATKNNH
Procedure: Recombinant active PAK 1 (Calbiochem) was incubated with selected derivatives or 0.1% DMSO in the presence or absence of MBP (Sigma) in a 1× kinase buffer (Cell Signaling). The addition of [γ-32P]-ATP (2.5 μCi/reaction) (Perkin Elmer) started the reaction, which was incubated at 30° C. for 30 minutes. The reaction was terminated by the addition of EDTA. Results were obtained after visualization of ^32P-labeled MBP after separation on 12% polyacrylamide gels and autoradiography. For the Lineweaver-Burk plot analysis, the ratio of radioactive ATP to nonradioactive ATP was not altered. The PAK1 kinase activities are the means of three independent experiments quantified using P81 phosphocellulose paper by a scintillation counter after three washes with 0.75% phosphoric acid.
Screening of OSU-03012 Derivatives to Identify PAK1 Inhibitors. The 17 derivatives along with OSU-03012, each at 7.5 μM, were screened for their ability to inhibit PAK1 activity by in vitro PAK1 kinase assay. The dose was chosen (above the IC50 of OSU-03012) to allow OSU-03012 to serve as a robust positive control. The PAK1 kinase assay was performed using recombinant active PAK1 with myelin basic protein as substrate in the presence of 2.5 μM ATP and 7.5 μM of respective inhibitors.
To further investigate these six compounds, dose-response studies on PAK1 activity were performed by using PAK1 kinase assay. […] We next questioned whether compounds 4 or 15 inhibited PAK1 in an ATP competitive manner as their parent compound OSU-03012.

[3] = system: TPC1 cells; test: MTT cell viability assay, TPC1; assay type: cell-based, Human; details: 1% FBS, mean±standard deviation (n=3), read-out: IC50 for reducing viability of TPC1 cells versus DMSO control
Text: as §1, §2, §3, §4

[4] = system: BCPAP cells; test: MTT cell viability assay, BCPAP; assay type: cell-based, Human; details: 72-hours of exposure, 1% FBS, mean±standard deviation (n=3), read-out: IC50 for reducing viability of BCPAP cells versus DMSO control
Text: as §1, §2, §3, §4

[5] = Homo sapiens, FTC-133, 72-hours of exposure
[6] = Homo sapiens, TPC1, 72-hours of exposure

| Compound | IC50 [1, 5] | Relative PAK1 inhibitory potency (comparison in words) [2] | IC50 [3, 6] | IC50 ([4]; Homo sapiens, BCPAP) | IC50 ([1]; 72-hours of exposure) | IC50 ([3]; 72-hours of exposure) | IC50 [4] | Inhibition of PAK1 kinase activity in initial screen [2] |
| --- | --- | --- | --- | --- | --- | --- | --- | --- |
| CNC(=O)c1cc(-c2ccc3ccc4ccccc4c3c2)n(-c2ccc(NC(=O)CCN)cc2)n1 [Compound 13, 1-(4-(3-Aminopropanamido)phenyl)-N-methyl-5-(phenanthren-3-yl)-1H-pyrazole-3-carboxamide] | 4.95 ± 3.21 µM | more potent | 3.62 ± 0.42 µM | 2.76 ± 1.56 µM |  |  |  |  |
| CNC(=O)c1cc(-c2ccc3ccc4ccccc4c3c2)n(-c2ccc(N)cc2)n1 [Compound 17, 1-(4-Aminophenyl)-N-methyl-5-(phenanthren-3-yl)-1H-pyrazole-3-carboxamide] | > 10 µM | did not show any activity | 8.96 ± 1.17 µM | > 10 µM |  |  |  |  |
| Nc1ccc(-n2nc(CO)cc2-c2ccc3ccc4ccccc4c3c2)cc1 [Compound 16, (1-(4-Aminophenyl)-5-(phenanthren-3-yl)-1H-pyrazol-3-yl)methanol] | > 10 µM | did not show any activity | 4.32 ± 2.18 µM | > 10 µM |  |  |  |  |
| 1-(4-Aminophenyl)-5-(phenanthren-2-yl)-1H-pyrazol-3-yl) methanol [Compound 6] |  | did not show any activity |  |  | > 10 µM | > 10 µM | > 10 µM |  |
| NCC(=O)Nc1ccc(-n2nc(C(=O)NCc3ccccc3)cc2-c2ccc3ccc4ccccc4c3c2)cc1 [Compound 1, 1-(4-(2-Aminoacetamido)phenyl)-N-benzyl-5-(phenanthren-3-yl)-1H-pyrazole-3-carboxamide] | 4.78 ± 4.53 µM |  | 2.6 ± 0.81 µM | 2.01 ± 0.59 µM |  |  |  | inhibited PAK1 kinase activity |
| CNC(=O)c1cc(-c2ccc3ccc4ccccc4c3c2)n(-c2ccc(NC(=O)CN)cc2)n1 [Compound 7, 1-(4-(2-aminoacetamido)phenyl)-N-methyl-5-(phenanthren-3-yl)-1H-pyrazole-3-carboxamide] | 4.53 ± 2.57 µM |  | 3.67 ± 1.52 µM | 3.71 ± 1.82 µM |  |  |  |  |
| NCCC(=O)Nc1ccc(-n2nc(CO)cc2-c2ccc3c(ccc4ccccc43)c2)cc1 [Compound 12, 3-Amino-N-(4-(3-(hydroxymethyl)-5-(phenanthren-2-yl)-1H-pyrazol-1-yl)phenyl)-propanamide] | 7.55 ± 2.19 µM |  | 5.83 ± 1.73 µM | 3.76 ± 1.2 µM |  |  |  |  |
| CCNC(=O)c1cc(-c2ccc3ccc4ccccc4c3c2)n(-c2ccc(NC(=O)CN)cc2)n1 [Compound 2, 1-(4-(2-aminoacetamido)phenyl)-N-ethyl-5-(phenanthren-3-yl)-1H-pyrazole-3-carboxamide] | 4.83 ± 4.47 µM |  | 1.81 ± 1.24 µM | 2.67 ± 0.82 µM |  |  |  |  |
| NCC(=O)Nc1ccc(-n2nc(C(F)(F)F)cc2-c2ccc3ccc4ccccc4c3c2)cc1 [Compound 3, 2-Amino-N-(4-(5-(phenanthren-3-yl)-3-(trifluoromethyl)-1H-pyrazol-1-yl)phenyl)-acetamide] | 5.32 ± 4.05 µM | slightly more potent | 3.17 ± 1.29 µM | 2.34 ± 0.27 µM |  |  |  | inhibited PAK1 kinase activity |
| NCC(=O)Nc1ccc(-n2nc(CO)cc2-c2ccc3ccc4ccccc4c3c2)cc1 [Compound 9, 2-Amino-N-(4-(3-(hydroxymethyl)-5-(phenanthren-3-yl)-1H-pyrazol-1-yl)phenyl)-acetamide] | 4.75 ± 2.47 µM | did not show any improvement | 2.42 ± 0.13 µM | 4.04 ± 1.38 µM |  |  |  |  |
| CNC(=O)c1cc(-c2ccc3c(ccc4ccccc43)c2)n(-c2ccc(NC(=O)CCN)cc2)n1 [Compound 14, 1-(4-(3-aminopropanamido)phenyl)-N-methyl-5-(phenanthren-2-yl)-1 μl-pyrazole-3-carboxamide] |  | more potent |  |  | 5.42 ± 1.56 µM | 5.98 ± 0.28 µM | 3.32 ± 1.09 µM |  |
| CNC(=O)c1cc(-c2ccc3c(ccc4ccccc43)c2)n(-c2ccc(NC(=O)CN)cc2)n1 [Compound 8, 1-(4-(2-Aminoacetamido)phenyl)-N-methyl-5-(phenanthren-2-yl)-1H-pyrazole-3-carboxamide] | 3.08 ± 1.63 µM |  | 4.67 ± 4.16 µM | 2.9 ± 2.35 µM |  |  |  |  |
| CNC(=O)c1cc(-c2ccc3c(ccc4ccccc43)c2)n(-c2ccc(N)cc2)n1 [Compound 5, 1-(4-Aminophenyl)-N-methyl-5-(phenanthren-2-yl)-1H-pyrazole-3-carboxamide] | 5.03 ± 0.25 µM | did not show any activity | > 10 µM | > 10 µM |  |  |  |  |
| NCC(=O)Nc1ccc(-n2nc(CO)cc2-c2ccc3c(ccc4ccccc43)c2)cc1 [Compound 10, 2-Amino-N-(4-(3-(hydroxymethyl)-5-(phenanthren-2-yl)-1H-pyrazol-1-yl)phenyl)-acetamide] | 8.95 ± 0.57 µM | more potent activity | 7.39 ± 1.9 µM | 6.53 ± 2.16 µM |  |  |  | inhibited PAK1 kinase activity |
